The record followed here is paper PMC4199533, “Toxicological and biochemical characterizations of AChE in phosalone-susceptible and resistant populations of the common pistachio psyllid, Agonoscena pistaciae” (Journal of Insect Science, 2014).

The structures appear in SMILES notation. Read-outs that look alike come from different tables or passages of the source.

The subject of test [1] is T1, AChE (Bam population, susceptible).
T1 construct: gene AChE1
Briefly: Ellman microplate inhibition assay. It is filed as biochemical, Agonoscena pistaciae. Conditions: pH 7.0; 10 min preincubation at room temperature; thiocholine substrate and DTNB; covalent; read-out: I50. The source says:
Ellman microplate inhibition assay on AChE (Bam population, susceptible)

The test system of test [2] is T2, AChE (Rafsanjan population, resistant; modified AChE).
T2 construct: gene AChE1
Particulars: read-out: I50, pH 7.0, 10 min preincubation at room temperature, thiocholine substrate and DTNB, covalent. The source says:
Ellman microplate inhibition assay on AChE (Rafsanjan population, resistant; modified AChE)

In test [3] the test system is T1, AChE (Bam population, susceptible). As to the kind of experiment: Ellman microplate kinetics, Michaelis-Menten fit. The test is classed as biochemical, Agonoscena pistaciae. Particulars: DTNB; pH 7.0; 37°C; 405 nm; apparent, total AChE. An excerpt: Ellman microplate kinetics, Michaelis-Menten fit on AChE (Bam population, susceptible)
A general note: DTNB colorimetry detects thiols as they appear.

In test [4] the test system is T2, AChE (Rafsanjan population, resistant; modified AChE). Particulars: DTNB; pH 7.0; 37°C; 405 nm; apparent, total AChE. An excerpt:
Ellman microplate kinetics, Michaelis-Menten fit on AChE (Rafsanjan population, resistant; modified AChE)

For the molecule `CNC(=O)Oc1ccc2c(c1)[C@]1(C)CCN(C)[C@@H]1N2C` [eserine], the IC50 was determined as […] in test [1] and […] in test [2].

For the molecule `CCC(=O)SCC[N+](C)(C)C` [PTC, propionylthiocholine iodide], the values for the Km in test [3] and in test [4] were 1400 ± 110 nM and 4.1 ± 0.06 µM, respectively.

For the molecule `CNC(=O)Oc1cccc2c1OC(C)(C)C2` [carbofuran], the values for the IC50 in test [1] and in test [2] were 380 ± 10 µM and 0.16 ± 0.01 mM, respectively.

Consider `CNC(=O)Oc1cccc(C)c1` [MTMC, m-tolyl methyl carbamate], for which the IC50 in test [1] was found to be 20430 ± 170 µM; in test [2], 9.45 ± 0.03 mM.

For the molecule `CNC(=O)O/N=C/C(C)(C)SC` [aldicarb], the values for the IC50 in test [1] and in test [2] were 2590 ± 20 µM and 2.85 ± 0.06 mM, respectively.

For the molecule `CNC(=O)/C=C(\C)OP(=O)(OC)OC` [monocrotophos], the figures for the IC50 in test [1] and in test [2] (stated gain) were 230 ± 10 µM and 5.28 ± 0.04 mM, respectively.

Take `CNC(=O)Oc1ccccc1OC(C)C` [propoxur]: the IC50 was 1060 ± 30 µM in test [1] and 0.83 ± 0.01 mM in test [2].

For the molecule `CC(=O)SCC[N+](C)(C)C` [ATC, acetylthiocholine iodide], the Km in test [3] was 1250 ± 50 nM.

In the case of `CCN(CC)C(=O)C(Cl)=C(C)OP(=O)(OC)OC` [phosphamidon], the IC50 in test [1] came out at 220 ± 10 µM; in test [2] (stated gain), 4.79 ± 0.02 mM.

Take `CNC(=O)Oc1cccc2ccccc12` [carbaryl]: the IC50 in test [1] is 2360 ± 20 µM; in test [2], 2.05 ± 0.03 mM.

Turning to `CCCC(=O)SCC[N+](C)(C)C` [BTC, butyrylthiocholine iodide], the Km in test [3] is 4300 ± 140 nM.

The Km is the concentration of substrate that gives half-maximal velocity.
